We go through one compound from patent US20020155172A1, “Methods and compounds for decreasing cell toxicity or death” (priority 2000, published 2002).

Structures are written as SMILES.

One experiment deals with caspase-8. Description: Activation of caspase-8 by Western blot. The following applies: HeLa, HA-tagged Q79-GFP. It counts as cell-based. How it is done: Expanded polyglutamine repeats recruit and activate caspase-8 (Sanchez et al., supra). We tested if the treatment of cells expressing expanded polyglutamine repeats with Congo red inhibits the activation of caspase-8. HeLa cells were transfected with a hemagglutinin-tagged (HA) […]-GFP construct in the presence or absence of Congo red and the cell lysates were analyzed by Western blot analysis for the expression of caspase-8, or for expression of HA. The appearance of a 45 kilodalton active caspase-8 fragment was detected at 24 hours after transfection, which was before significant loss of cytoplasmic membrane integrity and morphological changes occurred, and near the time of ATP loss (FIG. 5E).
A general note: A western blot detects proteins with antibodies after separation by electrophoresis.

In another experiment the test system is R62 mice. The experiment is described as follows: Dyskinesia of the hindlimbs, gait and stride length (ink test). The experiment is classed as in vivo. The text has this:
FIG. 10D is a set of scanned images of the effect of Congo red or PBS (vehicle) on motor coordination, as assessed by the “ink” test in HD transgenic mice three weeks after Congo red or vehicle treatment. The “ink” test was used to determine the changes in stride length and the overlap of steps characteristic of movement disorders using red and green food coloring to mark the front and back paws, respectively. Changes in stride length of individual mice from one set of paws (brackets) and the differences in the step overlapping patterns (open arrows) three weeks after vehicle or Congo red treatment were assayed.
FIG. 10E is a table of the quantification of changes in stride length in HD transgenic mice treated with either Congo red or PBS (vehicle) (#, n=5 in each cohort), assessed as described in FIG. 10D.
In addition, the ability of Congo red to inhibit the formation as well as to disrupt preformed polyglutamine oligomers allowed us to examine the role of polyglutamine aggregates in neuronal dysfunction and degeneration characteristic of polyglutamine expansion diseases. In these studies, we used the animal model of Huntington's disease (R62), which expresses the truncated form of huntingtin with 139 CAG repeats Mangiarini et al. (supra). We took advantage of our finding that in addition to inhibiting polyglutamine oligomerization, Congo red also disrupts pre-formed oligomers, thus allowing assessment of the impact of Congo red on disease progression after formation of polyglutamine aggregates and the onset of symptoms. R62 transgenic mice and CBAxC57B1/6 F1 wild type littermates were obtained from Jackson Laboratories (Bar Harbor, Me.) at the age of five weeks. […]
The initial abnormal neurological signs of R62 mice include dyskinesia of the hindlimbs when mice were suspended by the tail, and irregular gait. […] The effect of Congo red on motor performance in R62 mice was also assessed by rotarod studies. […]

The subject of experiment [1] is semi-purified Q79 oligomers from HeLa cells expressing transfected Q79-GFP. The experiment is described as follows: Disassembly of semi-purified Q79 oligomers. The experiment is classed as biochemical. The conditions noted are these: 25 μM (FIG. 6C); fluorescence microscopy. How it is done: FIG. 6C is a set of scanned images of the disruption of pre-formed Q79-GFP oligomers by Congo red, minocycline, or rolitetracycline. Lysates from Q79-GFP expressing cells were treated with 25 μM of the indicated compound, and visualized by fluorescence microscopy.
To determine if binding to polyglutamine is sufficient to inhibit the aggregate formation, we compared the ability of minocycline, rolitetracycline, iota carrageenan, dextran, chrysamine G, and Congo red to bind to 81-repeat polyglutamine polypeptide by the chemical absorption assay described above (FIG. 6B). […] To examine the relationship of compound binding and its ability to dissolve expanded polyglutamine aggregates, we tested their effects on semi-purified Q79 oligomers from HeLa cells expressing transfected Q79-GFP, viewed using a microscope.

Experiment [2] has as its system HeLa cells transfected with the Q79-GFP plasmid. The experiment is described as follows: Cell death by receptor-mediated pathways (TNF-α or anti-FasR with cycloheximide). The experiment is classed as cell-based. The conditions noted are these: Congo red 100 μM, 72 hours. As to the method:
FIG. 4B is a graph showing the effect of Congo red (CR) on the induction of cell death by receptor-mediated pathways. HeLa cells transfected with a Q79-GFP plasmid were treated with TNF-a or anti-FasR and cycloheximide (CHX), in the presence or absence of CR (100 μM). The amount of cell death was measured 72 hours after transfection.
The effect of Congo red on the induction of cell death by receptor-mediated pathways was also evaluated. Once again, HeLa cells were transfected with the Q79-GFP plasmid, and six hours later were administered Tumor Necrosis Factor-alpha (TNF-α) or anti-FasR in the presence of cycloheximide (CHX). The samples were then incubated with or without Congo red (100 μM). The amount of cell death was measured 72 hours after exposure to the compounds (FIG. 4B).

Where [3] appears, read: ink test three weeks after treatment.

Consider `Nc1c(/N=N/c2ccc(-c3ccc(/N=N/c4cc(S(=O)(=O)O)c5ccccc5c4N)cc3)cc2)cc(S(=O)(=O)O)c2ccccc12` [Congo red, diphenyldiazo-bis-alpha-napthylaminesulfonate], for which, in the experiment with caspase-8, the “appearance of active caspase-8 (45 kilodalton fragment)” value is “completely inhibited the appearance of active caspase-8”. In the experiment with R62 mice, the “dyskinesia of the hindlimbs” value is “significantly inhibited the dyskinesia of the hindlimbs”. Besides, in the experiment with R62 mice (setting [3]), the gait result is on record as “preserved the normal gait”; the stride length result was “preserved the normal gait (FIG. 10D) and stride length”. The “disassembly of pre-formed poly-Q oligomers” value in experiment [1] is “caused the disassembly of pre-formed poly-Q oligomers”. Besides, the “induction of cell death by receptor-mediated pathways” value in experiment [2] is given as “does not alter the induction of cell death by receptor-mediated pathways”.
